# From patent publication US9415055B2, “Cyclic amines” (H. Lundbeck A/S, priority 2012, dated 2016)
# Target: P2X7 receptor (Homo sapiens (Human), UniProt Q99572)
# Assay: P2X7 FLIPR assay: antagonism of BzATP response in 293 HEK cells stably expressing P2X7 receptor
# Format: cell-based
# Settings: FLIPR fluorescence (Fluo-4), agonist BzATP, 293 HEK cells stably transfected with P2X7 receptor
# Procedure, shortened: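 Antagonist IC50 derived from FLIPR Tetra Fluo-4 calcium signal evoked by BzATP. Compound pre-incubation was 30 min at room temperature on P2X7-expressing HEK293 cells, seeded 24 h before in low-serum medium and dye-loaded 30 min at 37 °C then 30 min at RT.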
# Sequence of P2X7 receptor (Q99572 whole entry): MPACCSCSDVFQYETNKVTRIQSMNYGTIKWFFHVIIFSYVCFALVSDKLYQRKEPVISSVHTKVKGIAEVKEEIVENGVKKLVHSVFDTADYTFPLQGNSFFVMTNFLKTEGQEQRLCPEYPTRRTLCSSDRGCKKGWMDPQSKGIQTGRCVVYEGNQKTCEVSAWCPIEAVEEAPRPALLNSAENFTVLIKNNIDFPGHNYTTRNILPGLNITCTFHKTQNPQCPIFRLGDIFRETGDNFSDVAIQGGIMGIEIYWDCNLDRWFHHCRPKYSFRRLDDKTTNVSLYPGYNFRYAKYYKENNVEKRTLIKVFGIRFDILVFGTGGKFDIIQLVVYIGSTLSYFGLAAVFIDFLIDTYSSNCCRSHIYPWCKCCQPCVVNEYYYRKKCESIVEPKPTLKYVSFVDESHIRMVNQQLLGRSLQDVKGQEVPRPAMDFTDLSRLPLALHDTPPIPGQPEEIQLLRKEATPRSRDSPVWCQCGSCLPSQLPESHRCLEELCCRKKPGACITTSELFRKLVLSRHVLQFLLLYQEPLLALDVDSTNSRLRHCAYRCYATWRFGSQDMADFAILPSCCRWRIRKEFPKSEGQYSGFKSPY
row,IC50,Structure (SMILES)
1,2500 nM,"CC1(C)CCN(C(CNC(=O)c2cccc(Cl)c2Cl)c2cnc(C(F)(F)F)nc2)CC1 (centres unmarked) [2,3-dichloro-N-(2-(4,4-dimethylpiperidin-1-yl)-2-(2-(trifluoromethyl)pyrimidin-5-yl)ethyl)benzamide]"
2,17 nM,"O=C(NCC(c1ccc(Cl)cc1)N1CCCOCC1)c1cccc(Cl)c1Cl (centres unmarked) [2,3-dichloro-N-(2-(4-chlorophenyl)-2-(1,4-oxazepan-4-yl)ethyl)benzamide]"
3,5.7 nM,"Cc1ncc(C(CNC(=O)c2cccc(Cl)c2Cl)N2CCC(Cl)CC2)cn1 (centres unmarked) [2,3-dichloro-N-(2-(4-chloropiperidin-1-yl)-2-(2-methylpyrimidin-5-yl)ethyl)benzamide]"
4,3800 nM,"COC1CCN(C(CNC(=O)c2cccc(Cl)c2Cl)c2cnc(C)nc2)CC1 (centres unmarked) [2,3-dichloro-N-(2-(4-methoxypiperidin-1-yl)-2-(2-methylpyrimidin-5-yl)ethyl)benzamide]"
5,21 nM,"Cc1ncc(C(CNC(=O)c2cccc(Cl)c2Cl)N2CCOCC2)cn1 (centres unmarked) [2,3-dichloro-N-[2-(2-methylpyrimidin-5-yl)-2-morpholino-ethy] [2,3-Dichloro-N-[2-(2-methylpyrimidin-5-yl)-2-motpholino-ethyl]benzamide]"
6,4.3 nM,"Cc1ncc(C(CNC(=O)c2cccc(Cl)c2Cl)N2CCC(F)(F)CC2)cn1 (centres unmarked) [2,3-dichloro-N-[2-(4,4-difluoro-1-piperidyl)-2-(2-methylpyri] [2,3-dichloro-N-(2-(4,4-difluoropiperidin-1-yl)-2-(2-methylpyrimidin-5-yl)ethyl)benzamide]"
7,0.6 nM,"COc1ccc(C(CNC(=O)c2cccc(Cl)c2Cl)N2CCC(F)(F)CC2)cc1 (centres unmarked) [2,3-dichloro-N-[2-(4,4-difluoro-1-piperidyl)-2-(4-methoxyphenyl)ethyl]benzamide]"
8,8.2 nM,"O=C(NCC(c1cnc(C(F)(F)F)nc1)N1CCOCC1)c1cccc(Cl)c1Cl (centres unmarked) [2,3-dichloro-N-[2-morpholino-2-[2-(trifluoromethyl)pyrimidin] [2,3-Dichloro-N-[2-morpholino-2-[2-(trifluoromethyl)pyrimidin-5-yl]ethyl]benzamide]"
9,4.6 nM,"O=C(NCC(c1ccc(C(F)(F)F)nc1)N1CCOCC1)c1cccc(Cl)c1Cl (centres unmarked) [2,3-dichloro-N-[2-morpholino-2-[6-(trifluoromethyl)-3-pyridy] [2,3-Dichloro-N-[2-morpholino-2-[6-(trifluoromethyl)-3-pyridyl]ethyl]benzamide]"
10,970 nM,"Cc1ncc(C(CNC(=O)c2ccc(Cl)cc2Cl)N2CCC(=O)CC2)cn1 (centres unmarked) [2,4-dichloro-N-(2-(2-methylpyrimidin-5-yl)-2-(-1-yl)ethyl)benzamide]"
11,44 nM,"Cc1ncc(C(CNC(=O)c2ccc(Cl)cc2Cl)N2CCC(F)(F)CC2)cn1 (centres unmarked) [2,4-dichloro-N-(2-(4,4-difluoropiperidin-1-yl)-2-(2-methylpyrimidin-5-yl)ethyl)benzamide]"
12,280 nM,"Cc1ncc(C(CNC(=O)c2ccc(Cl)cc2Cl)N2CCC(Cl)CC2)cn1 (centres unmarked) [2,4-dichloro-N-(2-(4-chloropiperidin-1-yl)-2-(2-methylpyrimidin-5-yl)ethyl)benzamide]"
13,12 nM,"O=C(NCC(c1cnc(C(F)(F)F)nc1)N1CCOCC1)c1ccc(Cl)cc1Cl (centres unmarked) [2,4-dichloro-N-(2-morpholino-2-(2-(trifluoromethyl)pyrimidin-5-yl)ethyl)benzamide]"
14,740 nM,"Cc1ncc(C(CNC(=O)c2c(Cl)cccc2Cl)N2CCCOCC2)cn1 (centres unmarked) [2,6-dichloro-N-(2-(2-methylpyrimidin-5-yl)-2-(1,4-oxazepan-4-yl)ethyl)benzamide]"
15,120 nM,"Cc1ncc(C(CNC(=O)c2c(Cl)cccc2Cl)N2CCOCC2)cn1 (centres unmarked) [2,6-dichloro-N-(2-(2-methylpyrimidin-5-yl)-2-morpholinoethyl)benzamide]"
16,1100 nM,"Cc1ncc(C(CNC(=O)c2c(F)cccc2F)N2CCOCC2)cn1 (centres unmarked) [2,6-difluoro-N-(2-(2-methylpyrimidin-5-yl)-2-morpholinoethyl)benzamide]"

row,Structure (SMILES),IC50
1,"O=C(NCC(c1ccc(Cl)cc1)N1CCCC1)c1cccc(Cl)c1Cl (centres unmarked) [2,3-dichloro-N-(2-(4-chlorophenyl)-24 pyrrolidin-1-yl)ethyl)benzamide]",1800 nM
